Results from patent US11084826B2, “RSV antiviral pyrazolo- and triazolo-pyrimidine compounds” (Janssen Sciences Ireland Unlimited Company, priority 2015, dated 2021).

Tested on: not given
Assay: not given
Conditions: not given

Row | Structure (SMILES) | melting point [°C]
1 | C=CCC(=O)Nc1ccc(-c2cc3nc(C(=O)N4CCCCCC4C)cc(CC)n3n2)cc1 (stereo not drawn) [Compound E21] | 243 to 244
2 | CCc1cc(C(=O)N2CCCCCC2C)nc2cc(-c3ccc(NC(=O)c4nccn4C)cc3)nn12 (stereo not drawn) [Compound E22] | 196 to 198
3 | CCc1cc(C(=O)N2CCCCCC2C)nc2cc(-c3ccc(NC(=O)Cc4ccncc4)cc3)nn12 (stereo not drawn) [Compound E23] | 232 to 234
4 | CCc1cc(C(=O)N2CCCCCC2C)nc2cc(-c3ccc(NC(=O)CCC(=O)O)cc3F)nn12 (stereo not drawn) [Compound E24] | 225 to 230
5 | CCc1cc(C(=O)N2CCCCCC2C)nc2cc(-c3ccc(NC(=O)CCC(N)=O)cc3F)nn12 (stereo not drawn) [Compound E25] | 155 to 160
6 | CCc1cc(C(=O)N2CCCCCC2C)nc2cc(-c3ccc(N4C(=O)CCC4=O)cc3F)nn12 (stereo not drawn) [Compound E26] | 190 to 195
7 | CCc1cc(C(=O)N2CCCCCC2C)nc2cc(-c3ccc(NC(=O)CCC(=O)NC)cc3F)nn12 (stereo not drawn) [Compound E27] | 215 to 220
8 | CCc1cc(C(=O)N2CCCCCC2C)nc2cc(-c3ccc(NC(=O)CCC(=O)N(C)C)cc3F)nn12 (stereo not drawn) [Compound E28] | 180 to 185
9 | CCc1cc(C(=O)N2CCCCCC2C)nc2cc(-c3ccc(NC(=O)CCC(=O)NC)cc3)nn12 (stereo not drawn) [Compound E29] | 204 to 205
10 | CCc1cc(C(=O)N2CCCCCC2C)nc2cc(-c3csc(NC(=O)C4CC4)n3)nn12 (stereo not drawn) [Compound E30] | 277 to 279
11 | CCc1cc(C(=O)N2CCCCC2C)nc2cc(-c3ccc(-c4ccncc4)cc3)nn12 (stereo not drawn) [Compound F1] | 150 to 151
12 | CCc1cc(C(=O)N2CCCCCC2C)nc2cc(-c3ccc(-c4cncnc4)cc3)nn12 (stereo not drawn) [Compound F3] | 185
13 | CCc1cc(C(=O)N2CCCCCC2C)nc2cc(-c3ccc(-c4cccnc4)cc3F)nn12 (stereo not drawn) [Compound F4] | 167 to 168
14 | CCc1cc(C(=O)N2CCCCCC2C)nc2cc(-c3ccc(-c4ccn[nH]4)cc3F)nn12 (stereo not drawn) [Compound F5] | 75 to 76
15 | CCc1cc(C(=O)N2CCCCCC2C)nc2cc(-c3ccc(-c4cncc(F)c4)cc3F)nn12 (stereo not drawn) [Compound F7] | 95 to 96
16 | CCc1cc(C(=O)N2CCCCCC2C)nc2cc(-c3ccc(-c4cccnc4F)cc3F)nn12 (stereo not drawn) [Compound F8] | 86 to 87
17 | CCc1cc(C(=O)N2CCCCCC2C)nc2cc(-c3ccc(-c4cnn(C)c4)cc3F)nn12 (stereo not drawn) [Compound F9] | 65 to 67
18 | CCc1cc(C(=O)N2CCCCCC2C)nc2cc(-c3ccc(-c4cn(C)c(C)n4)cc3F)nn12 (stereo not drawn) [Compound F10] | 118 to 119
19 | CCc1cc(C(=O)N2CCCCCC2C)nc2cc(-c3ccc(-c4ccc(C(=O)O)cn4)cc3F)nn12 (stereo not drawn) [Compound F14] | 245 to 250
20 | CCc1cc(C(=O)N2CCCCC[C@H]2C)nc2cc(-c3ccc(-c4ccc(C(=O)O)cn4)cc3F)nn12 [Compound F15] | 181 to 182
21 | CCc1cc(C(=O)N2CCCCCC2C)nc2cc(-c3ccc(-c4ncc(C)cn4)cc3F)nn12 (stereo not drawn) [Compound F17] | 140 to 145
22 | CCc1cc(C(=O)N2CCCCCC2C)nc2cc(-c3ccc(-c4nc(C)c(C(=O)O)s4)cc3F)nn12 (stereo not drawn) [Compound F18] | 165 to 170
23 | C[C@@H]1CCCCCN1C(=O)c1cc(C2(C)CC2)n2nc(-c3ccc(-c4ccc(C(=O)O)cn4)cc3F)cc2n1 [Compound F31] | 257.89
24 | CCc1cc(C(=O)N2CCCCCN2C)nc2cc(-c3ccc(-c4ccc(C(=O)O)cn4)cc3F)nn12 [Compound F35] | 268.78

Tested on: rgRSV224 virus
Assay: Antiviral activity: inhibition of rgRSV224 (GFP-expressing RSV) replication in HeLa cells, GFP expression read-out
Type: cell-based, respiratory syncytial virus (RSV)
Conditions: human respiratory syncytial virus, HeLa, read-out: RSV HELA pEC50, rgRSV224 virus (MOI=1) in HeLa cells, GFP read-out (converted)
Summary of the method: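 HeLa cells (3,000/well) were infected with GFP-expressing rgRSV224 (MOI=1) in the presence of 9 serial 4-fold compound dilutions (0.05% DMSO) and incubated at 37° C, 5% CO2. After three days, GFP expression was measured by laser microscopy. EC50 is the concentration giving 50% inhibition of GFP expression.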

Row | Structure (SMILES) | EC50 [µM]
25 | C=CCC(=O)Nc1ccc(-c2cc3nc(C(=O)N4CCCCCC4C)cc(CC)n3n2)cc1 (stereo not drawn) [Compound E21] | 0.603
26 | CCc1cc(C(=O)N2CCCCCC2C)nc2cc(-c3ccc(NC(=O)c4nccn4C)cc3)nn12 (stereo not drawn) [Compound E22] | 1.7
27 | CCc1cc(C(=O)N2CCCCCC2C)nc2cc(-c3ccc(NC(=O)Cc4ccncc4)cc3)nn12 (stereo not drawn) [Compound E23] | 0.646
28 | CCc1cc(C(=O)N2CCCCCC2C)nc2cc(-c3ccc(NC(=O)CCC(=O)O)cc3F)nn12 (stereo not drawn) [Compound E24] | 0.282
29 | CCc1cc(C(=O)N2CCCCCC2C)nc2cc(-c3ccc(NC(=O)CCC(N)=O)cc3F)nn12 (stereo not drawn) [Compound E25] | 0.0617
30 | CCc1cc(C(=O)N2CCCCCC2C)nc2cc(-c3ccc(N4C(=O)CCC4=O)cc3F)nn12 (stereo not drawn) [Compound E26] | 0.407
31 | CCc1cc(C(=O)N2CCCCCC2C)nc2cc(-c3ccc(NC(=O)CCC(=O)NC)cc3F)nn12 (stereo not drawn) [Compound E27] | 0.117
32 | CCc1cc(C(=O)N2CCCCCC2C)nc2cc(-c3ccc(NC(=O)CCC(=O)N(C)C)cc3F)nn12 (stereo not drawn) [Compound E28] | 0.117
33 | CCc1cc(C(=O)N2CCCCCC2C)nc2cc(-c3ccc(NC(=O)CCC(=O)NC)cc3)nn12 (stereo not drawn) [Compound E29] | 0.457
34 | CCc1cc(C(=O)N2CCCCCC2C)nc2cc(-c3csc(NC(=O)C4CC4)n3)nn12 (stereo not drawn) [Compound E30] | 1.82
35 | CCc1cc(C(=O)N2CCCCC2C)nc2cc(-c3ccc(-c4ccncc4)cc3)nn12 (stereo not drawn) [Compound F1] | 0.871
36 | CCc1cc(C(=O)N2CCCCCC2C)nc2cc(-c3ccc(-c4cncnc4)cc3)nn12 (stereo not drawn) [Compound F3] | 0.832
37 | CCc1cc(C(=O)N2CCCCCC2C)nc2cc(-c3ccc(-c4cccnc4)cc3F)nn12 (stereo not drawn) [Compound F4] | 0.724
38 | CCc1cc(C(=O)N2CCCCCC2C)nc2cc(-c3ccc(-c4ccn[nH]4)cc3F)nn12 (stereo not drawn) [Compound F5] | 0.309
39 | CCc1cc(C(=O)N2CCCCCC2C)nc2cc(-c3ccc(-c4cncc(F)c4)cc3F)nn12 (stereo not drawn) [Compound F7] | 2.09
40 | CCc1cc(C(=O)N2CCCCCC2C)nc2cc(-c3ccc(-c4cccnc4F)cc3F)nn12 (stereo not drawn) [Compound F8] | 2.34
41 | CCc1cc(C(=O)N2CCCCCC2C)nc2cc(-c3ccc(-c4cnn(C)c4)cc3F)nn12 (stereo not drawn) [Compound F9] | 0.661
42 | CCc1cc(C(=O)N2CCCCCC2C)nc2cc(-c3ccc(-c4cn(C)c(C)n4)cc3F)nn12 (stereo not drawn) [Compound F10] | 0.692
43 | CCc1cc(C(=O)N2CCCCCC2C)nc2cc(-c3ccc(-c4ccc(C(=O)O)cn4)cc3F)nn12 (stereo not drawn) [Compound F14] | 0.182
44 | CCc1cc(C(=O)N2CCCCC[C@H]2C)nc2cc(-c3ccc(-c4ccc(C(=O)O)cn4)cc3F)nn12 [Compound F15] | 0.12
45 | CCc1cc(C(=O)N2CCCCCC2C)nc2cc(-c3ccc(-c4ncc(C)cn4)cc3F)nn12 (stereo not drawn) [Compound F17] | 0.646
46 | CCc1cc(C(=O)N2CCCCCC2C)nc2cc(-c3ccc(-c4nc(C)c(C(=O)O)s4)cc3F)nn12 (stereo not drawn) [Compound F18] | 0.2
47 | C[C@@H]1CCCCCN1C(=O)c1cc(C2(C)CC2)n2nc(-c3ccc(-c4ccc(C(=O)O)cn4)cc3F)cc2n1 [Compound F31] | 0.049
48 | CCc1cc(C(=O)N2CCCCCN2C)nc2cc(-c3ccc(-c4ccc(C(=O)O)cn4)cc3F)nn12 [Compound F35] | 0.162

Tested on: not listed separately
Assay: Cytotoxicity in HeLa cells, ATP content measured with the ATPlite kit
Type: cell-based
Conditions: human, TOX HELA pCC50

Row | Structure (SMILES) | CC50 at 3 days [µM]
49 | C=CCC(=O)Nc1ccc(-c2cc3nc(C(=O)N4CCCCCC4C)cc(CC)n3n2)cc1 (stereo not drawn) [Compound E21] | > 25.1
50 | CCc1cc(C(=O)N2CCCCCC2C)nc2cc(-c3ccc(NC(=O)c4nccn4C)cc3)nn12 (stereo not drawn) [Compound E22] | 21.9
51 | CCc1cc(C(=O)N2CCCCCC2C)nc2cc(-c3ccc(NC(=O)Cc4ccncc4)cc3)nn12 (stereo not drawn) [Compound E23] | > 25.1
52 | CCc1cc(C(=O)N2CCCCCC2C)nc2cc(-c3ccc(NC(=O)CCC(=O)O)cc3F)nn12 (stereo not drawn) [Compound E24] | > 25.1
53 | CCc1cc(C(=O)N2CCCCCC2C)nc2cc(-c3ccc(NC(=O)CCC(N)=O)cc3F)nn12 (stereo not drawn) [Compound E25] | > 25.1
54 | CCc1cc(C(=O)N2CCCCCC2C)nc2cc(-c3ccc(N4C(=O)CCC4=O)cc3F)nn12 (stereo not drawn) [Compound E26] | > 25.1
55 | CCc1cc(C(=O)N2CCCCCC2C)nc2cc(-c3ccc(NC(=O)CCC(=O)NC)cc3F)nn12 (stereo not drawn) [Compound E27] | > 25.1
56 | CCc1cc(C(=O)N2CCCCCC2C)nc2cc(-c3ccc(NC(=O)CCC(=O)N(C)C)cc3F)nn12 (stereo not drawn) [Compound E28] | > 25.1
57 | CCc1cc(C(=O)N2CCCCCC2C)nc2cc(-c3ccc(NC(=O)CCC(=O)NC)cc3)nn12 (stereo not drawn) [Compound E29] | > 25.1
58 | CCc1cc(C(=O)N2CCCCCC2C)nc2cc(-c3csc(NC(=O)C4CC4)n3)nn12 (stereo not drawn) [Compound E30] | > 25.1
59 | CCc1cc(C(=O)N2CCCCC2C)nc2cc(-c3ccc(-c4ccncc4)cc3)nn12 (stereo not drawn) [Compound F1] | 38
60 | CCc1cc(C(=O)N2CCCCCC2C)nc2cc(-c3ccc(-c4cncnc4)cc3)nn12 (stereo not drawn) [Compound F3] | > 100
61 | CCc1cc(C(=O)N2CCCCCC2C)nc2cc(-c3ccc(-c4cccnc4)cc3F)nn12 (stereo not drawn) [Compound F4] | > 25.1
62 | CCc1cc(C(=O)N2CCCCCC2C)nc2cc(-c3ccc(-c4ccn[nH]4)cc3F)nn12 (stereo not drawn) [Compound F5] | > 25.1
63 | CCc1cc(C(=O)N2CCCCCC2C)nc2cc(-c3ccc(-c4cncc(F)c4)cc3F)nn12 (stereo not drawn) [Compound F7] | > 25.1
64 | CCc1cc(C(=O)N2CCCCCC2C)nc2cc(-c3ccc(-c4cccnc4F)cc3F)nn12 (stereo not drawn) [Compound F8] | > 25.1
65 | CCc1cc(C(=O)N2CCCCCC2C)nc2cc(-c3ccc(-c4cnn(C)c4)cc3F)nn12 (stereo not drawn) [Compound F9] | > 25.1
66 | CCc1cc(C(=O)N2CCCCCC2C)nc2cc(-c3ccc(-c4cn(C)c(C)n4)cc3F)nn12 (stereo not drawn) [Compound F10] | > 25.1
67 | CCc1cc(C(=O)N2CCCCCC2C)nc2cc(-c3ccc(-c4ccc(C(=O)O)cn4)cc3F)nn12 (stereo not drawn) [Compound F14] | > 25.1
68 | CCc1cc(C(=O)N2CCCCC[C@H]2C)nc2cc(-c3ccc(-c4ccc(C(=O)O)cn4)cc3F)nn12 [Compound F15] | > 25.1
69 | CCc1cc(C(=O)N2CCCCCC2C)nc2cc(-c3ccc(-c4ncc(C)cn4)cc3F)nn12 (stereo not drawn) [Compound F17] | > 25.1
70 | CCc1cc(C(=O)N2CCCCCC2C)nc2cc(-c3ccc(-c4nc(C)c(C(=O)O)s4)cc3F)nn12 (stereo not drawn) [Compound F18] | > 25.1
71 | C[C@@H]1CCCCCN1C(=O)c1cc(C2(C)CC2)n2nc(-c3ccc(-c4ccc(C(=O)O)cn4)cc3F)cc2n1 [Compound F31] | 32.4
72 | CCc1cc(C(=O)N2CCCCCN2C)nc2cc(-c3ccc(-c4ccc(C(=O)O)cn4)cc3F)nn12 [Compound F35] | > 100
